Results published in patent publication US20240269170A1, “Treatment of Inflammatory Conditions or Diseases” (Queen Mary University of London, priority 2021, published 2024).

System: G6PI peptide induced arthritis in DBA/1 mice
Test: G6PI peptide induced arthritis, MCTR3 treatment
Type: in vivo, mouse
Experimental: (A-D) K/B×N serum (100 μL via intraperitoneal injection, i.p.) was administered to C57BL/6 mice on days 0, 2 and 8 to initiate and prolong inflammatory arthritis. Mice were treated 1 μg/mouse MCTR3 or vehicle (PBS+0.1% EtOH) on day 10, 12 and 14 via intravenous (i.v.) injection. Disease course was assessed by evaluating A) clinical scores and B) paw oedema daily. Results are mean±SEM, n=9 mice per group. Statistical differences were evaluated using a Two-Way ANOVA. Arrows denote days when MCTR3 was administered. (C,D) paws were harvested on day 25, and cells liberated from the joints and the expression of phenotypic markers was evaluated on joint macrophages using flow cytometry and PLS-DA. (C) scores plot with highlighted regions denoting the clusters representing cells from each group and (D) VIP scores for each of the markers evaluated. Each dot in the score plot represents a separate mouse. (E-H) Arthritis was induced in DBA/1 mice by administration of 10 μg G6PI in CFA on Day 0. On day 24, 26 and 28 (denoted in blue arrows), mice were administered 1 μg/mouse MCTR3 or vehicle (PBS+0.1% EtOH) i.v. and (E) clinical scores and (F) paw oedema were measured. Results are mean±SEM, n=mice 7 per group from 2 separate experiments. Statistical differences were evaluated using a Two-Way ANOVA. (G-H) paws were harvested on day 36, and cells liberated from the joints and the expression of phenotypic markers was evaluated on joint macrophages using flow cytometry and PLS-DA. (G) scores plot with highlighted regions denoting the clusters representing cells from each group and (H) VIP scores for each of the markers evaluated. Each dot in the score plot represents a separate mouse.
FIG. 10: MCTR3 promotes bone and cartilage repair in arthritic mice. G6PI peptide (10 μg/mouse) in CFA was administered to DBA/1 mice ([…]) and mice were treated with either vehicle (PBS+0.1% EtOH) or 1 μg/mouse MCTR3 i.v. on day 24, 26 and 28. On day 36, hind paws were harvested for histological analysis. A) Representative images from knee joints from a vehicle and MCTR3 treated mouse stained with Safranin-O and B) quantitative analysis of Safranin O staining. Results are mean±SEM n=5 mice per group. C-D) microCT analysis was performed in vivo on day 24 and 35, to evaluate bone erosion in the arthritic knees. […] Results are mean±SEM and expressed as percent change from values obtained on day 24 for each mouse. n=4 mice per group. Statistical differences were evaluated using a Mann-Whitney U test.
We next assessed whether the protective activities of MCTR3 were retained in a model of adaptive immune system driven arthritis, using the glucose-6-phosphate isomerase peptide driven model of inflammatory arthritis (Schubert et al., 2004, J Immunol 172, 4503-4509). Here, administration of MCTR3 during the course of arthritic inflammation also led to a reduction in joint inflammation as measured by a reduction in both clinical scores and joint oedema (FIG. 1E,F). […] This shift in phenotype was linked with an upregulation of three phenotypic markers, including Arg-1 and CD11b, in cells obtained from joints of MCTR3 treated mice (FIG. 1H).
Since one of the main debilitating features of arthritis is bone erosion, we next determined whether the joint protective actions of MCTR3 also extended to the bone. For this purpose, we used microCT analysis to investigate bone volume in arthritic joints, comparing bone volumes on day 24, prior to MCTR3 treatment, to those at day 35. […] We next queried whether these bone protective activities of
G6PI peptide induced arthritis: Antigen DBA/1 mice were immunised with a G6PI emulsion (120 μL/mouse), prepared by sonication of 10 μg G6PI peptide (Sequence: IWYINCFGCETHAML; Cambridge Peptides Ltd.) in 50 μL complete Freund's adjuvant (CFA) and 50 μL DPBS^−/− per mouse (Schubert et al., 2004, J Immunol 172, 4503-4509), via intradermal injection at the base of the tail to initiate inflammatory arthritis. […]

[1] = 1 μg/mouse i.v. on day 24, 26 and 28
[2] = 1 μg/mouse i.v., day 36, flow cytometry

For CC/C=C\C/C=C\C[C@H](O)[C@@H](/C=C/C=C/C=C\C/C=C\CCC(=O)O)SC[C@H](N)C(=O)O [MCTR3, 13R-cysteinyl, 14S-hydroxy-4Z, 7Z, 9E, 11E, 13R, 14S, 16Z, 19Z-docosahexaenoic acid], the clinical scores [1] was “reduction”, the joint oedema [1] was “reduction” and the “safranin O-staining in joints (glycosaminoglycan content)” value (1 μg/mouse i.v. on day 24, 26 and 28, day 36) was “significantly higher”. For the same molecule, the “bone volume in arthritic knees (microCT)” value (1 μg/mouse i.v., day 35 compared with day 24) was “increased”, the “Arg-1 in joint macrophages” value [2] was “upregulation” and the “CD11b in joint macrophages” value [2] was “upregulation”.
